Measurements taken from the NIST ThermoML archive (doi:10.1016/j.jct.2015.05.027).
± gives the expanded uncertainty stated by the source.

Conditions: Liquid, Vibrating tube method

CCC(C)O (centres undefined) [butan-2-ol]
mass density [kg/m3]
Conditions | 293.15 K | 298.15 K | 313.15 K | 333.15 K | 353.21 K | 373.24 K | 393.27 K
100 kPa | 806.7 ± 0.7 | 802.6 ± 0.7 | 789.5 ± 0.7 | 770.8 ± 0.7 | 750.3 ± 0.7 | – | –
1000 kPa | 807.4 ± 0.7 | 803.3 ± 0.7 | 790.3 ± 0.7 | 771.7 ± 0.7 | 751.4 ± 0.7 | 729.1 ± 0.7 | 704.8 ± 0.7
5000 kPa | 810.4 ± 0.7 | 806.4 ± 0.7 | 793.6 ± 0.7 | 775.6 ± 0.7 | 756 ± 0.7 | 734.5 ± 0.7 | 711.4 ± 0.7
10000 kPa | 814 ± 0.7 | 810.1 ± 0.7 | 797.7 ± 0.7 | 780.2 ± 0.7 | 761.3 ± 0.7 | 740.8 ± 0.7 | 718.8 ± 0.7
15000 kPa | 817.4 ± 0.7 | 813.6 ± 0.7 | 801.6 ± 0.7 | 784.6 ± 0.7 | 766.4 ± 0.8 | 746.6 ± 0.8 | 725.6 ± 0.8
20000 kPa | 820.7 ± 0.7 | 817 ± 0.7 | 805.2 ± 0.8 | 788.8 ± 0.8 | 771 ± 0.8 | 751.9 ± 0.8 | 731.7 ± 0.8
25000 kPa | 823.9 ± 0.8 | 820.2 ± 0.8 | 808.5 ± 0.8 | 792.6 ± 0.8 | 775.4 ± 0.8 | 757 ± 0.8 | 737.4 ± 0.8
30000 kPa | 826.9 ± 0.8 | 823.4 ± 0.8 | 812.1 ± 0.8 | 796.3 ± 0.8 | 779.5 ± 0.8 | 761.6 ± 0.8 | 742.7 ± 0.8
35000 kPa | 829.9 ± 0.8 | 826.3 ± 0.8 | 815.3 ± 0.8 | 800 ± 0.8 | 783.5 ± 0.8 | 766.1 ± 0.8 | 747.8 ± 0.8
40000 kPa | 832.7 ± 0.8 | 829.2 ± 0.8 | 818.4 ± 0.8 | 803.4 ± 0.8 | 787.2 ± 0.8 | 770.4 ± 0.8 | 752.5 ± 0.9
45000 kPa | 835.4 ± 0.8 | 832 ± 0.8 | 821.3 ± 0.8 | 806.6 ± 0.8 | 790.8 ± 0.8 | 774.4 ± 0.9 | 757 ± 0.9
50000 kPa | 838.1 ± 0.8 | 834.7 ± 0.8 | 824.2 ± 0.8 | 809.7 ± 0.8 | 794.5 ± 0.9 | 778.1 ± 0.9 | 761.2 ± 0.9
55000 kPa | 840.6 ± 0.8 | 837.4 ± 0.8 | 827 ± 0.8 | 812.8 ± 0.9 | 797.7 ± 0.9 | 781.9 ± 0.9 | 765.4 ± 0.9
60000 kPa | 843.2 ± 0.8 | 839.9 ± 0.8 | 829.8 ± 0.9 | 815.8 ± 0.9 | 801 ± 0.9 | 785.4 ± 0.9 | 769.2 ± 0.9
65000 kPa | 845.7 ± 0.8 | 842.4 ± 0.8 | 832.5 ± 0.9 | 818.7 ± 0.9 | 804.1 ± 0.9 | 788.8 ± 0.9 | 773 ± 1
70000 kPa | 848 ± 0.9 | 844.8 ± 0.9 | 835 ± 0.9 | 821.4 ± 0.9 | 807.2 ± 0.9 | 792.1 ± 1 | 776.6 ± 1
80000 kPa | 852.6 ± 0.9 | 849.5 ± 0.9 | 839.9 ± 0.9 | 826.7 ± 0.9 | 812.9 ± 1 | 798.5 ± 1 | 783.4 ± 1
90000 kPa | 857.1 ± 0.9 | 854 ± 0.9 | 844.7 ± 0.9 | 831.9 ± 1 | 818.3 ± 1 | 804.3 ± 1 | 789.8 ± 1.1
100000 kPa | 861.2 ± 0.9 | 858.2 ± 0.9 | 849.1 ± 1 | 836.7 ± 1 | 823.5 ± 1 | 809.8 ± 1.1 | 795.8 ± 1.1
110000 kPa | 865.3 ± 0.9 | 862.4 ± 1 | 853.4 ± 1 | 841.2 ± 1 | 828.5 ± 1.1 | 815.1 ± 1.1 | 801.5 ± 1.1
120000 kPa | 869.2 ± 1 | 866.2 ± 1 | 857.5 ± 1 | 845.5 ± 1 | 833.1 ± 1.1 | 820.1 ± 1.1 | 806.8 ± 1.2
130000 kPa | 873 ± 1 | 870.1 ± 1 | 861.5 ± 1 | 849.8 ± 1.1 | 837.6 ± 1.1 | 824.9 ± 1.2 | 811.9 ± 1.2
140000 kPa | 876.6 ± 1 | 873.7 ± 1 | 865.4 ± 1 | 853.8 ± 1.1 | 842 ± 1.1 | 829.5 ± 1.2 | 816.8 ± 1.2
